Data published in patent US20150057316A1, “NOVEL SULFONATE-BASED TRIMEBUTINE SALTS” (GICARE PHARMA INC., priority 2012, published 2015).
Structures can show the parent of a compound that is named as a salt. Where two headings read alike, the source gives them in different places.

Assays:
[1] = system: rat hepatocytes; assay: in-vitro metabolism over rat hepatocytes; conditions: 10 μM, up to 120 min at 37° C.
Method: (§4) Human, dog and rat cryopreserved hepatocytes (Celsis-IVT; n=10 pooled donors) were thawed according to the recommended protocol of the cell provider. Cells were then diluted to 1 million viable cells per mL, plated in a 96-well plate (100 μL per well), and pre-incubated 20 min at 37° C. under 95:5 O2:CO2 atmosphere. Following addition of test compounds (10 μM; 1 μL of 1 mM stock solution (95:5 acetonitrile/DMSO) per well), cells were incubated with lid on up to 120 min at 37° C. under 95:5 O2:CO2 atmosphere. At time points 0, 15, 60 and 120 min, 100 μL of acetonitrile containing an internal standard (1 μM labetalol) was added to quench incubates, and the plate was centrifuged (5 min; 15K rpm). Supernatant was diluted 1:2 with water and analyzed by HPLC-MS/MS (ESI-). The MS2 scan mode was used instead of the MRM mode, in order to manually extract the Extracted Ion Current (EIC) of two potential metabolites: 3-cyanobenzenesulfonate and sodium 3-sulfobenzoate.

[2] = system: human hepatocytes; assay: in-vitro metabolism over human hepatocytes; conditions: 10 μM, up to 120 min at 37° C.
Method: as §4

[3] = quantification of counter-ion and metabolites in urine and feces of rats; type: in vivo; conditions: 500 mg/kg p.o., 48 hr collection
Method: A preliminary toxicological evaluation of the compound was done in 250-300 g male Sprague-Dawley rats. Animals were randomized into one of three dosing group, i.e. 250, 500 or 1,000 mg/kg administered by oral gavage. Following administration of the test article, animals were observed hourly for the first 8 hr post-dosing for clinical signs and twice daily thereafter until termination on Day 7. Three animals per group were sacrificed by exsanguination under general anesthesia at 24-hr post dosing or on Day 7 and a gross necropsy was performed in all animals. Additionally, all three rats having received the 500 mg/kg dose and scheduled for sacrifice on Day 7 were placed in individual metabolic cages immediately following test article administration, in order to collect feces and urine during 48 hr. Blood samples were collected terminally from each rat for hematology and serum chemistry evaluation.
After proper urine and feces samples preparation, trimebutine 3-thiocarbamoyl-benzenesulfonate and its two metabolites were assayed by HPLC-MS/MS (ESI-), in MRM mode. Calibration curves were prepared for each analyte, in both matrices (diluted blank urine and diluted blank feces).

[4] = system: dog hepatocytes; assay: in-vitro metabolism over dog hepatocytes; conditions: 10 μM, up to 120 min at 37° C.
Method: as §4

[5] = system: Caco-2 cells; assay: Caco-2 bidirectional permeability; type: in vitro ADME, human; conditions: for Efflux ratio: (Papp B − A)/(Papp A − B); for % Recovery A − B / Papp A − B: apical to basolateral; for % Recovery A − B / Papp A − B / % Recovery B − A / Papp B − A: 2-hr; for % Recovery B − A / Papp B − A: basolateral to apical; for Permeability: class from Papp A-B; for Significant Efflux: significant: efflux ratio above 3.0 and Papp B-A >1.0×10^−6 cm/s
From the text: (§1) Such a procedure helps understanding the suitability of the compound for oral dosing by measuring the rate of transport of the molecule across the Caco-2 cells, which have characteristics that resemble intestinal epithelial cells. Transport in both directions (apical to basolateral (A-B) and basolateral to apical (B-A)) across the cell monolayer was monitored over a 2-hr time period in order to evaluate the efflux ratio, an indicator of whether the compound undergoes significant active efflux or not. The permeability coefficient (Papp) is calculated from the equation: […]
(§2) Where dQ/dt is the rate of permeation of the drug across the cells, Co is the donor compartment concentration at time zero and A is the area of the cell monolayer. Co is obtained from analysis of the dosing solution at the start of the experiment. The analysis method used was LCMS quantification.
(§3) A permeability of (Papp A-B)<1.0×10^−6 cm/s is considered low, whereas a permeability of (Papp A-B)>1.0×10^−6 cm/s is considered high. A significant efflux is generally associated with an efflux ratio above 3.0 and a (Papp B-A)>1.0×10^−6 cm/s in these assay conditions.

[6] = cited from earlier work
[7] = solid-state stability of trimebutine salts of carboxylic acids; conditions: 1:1 molar ratio; salts dissociate with heat and/or time
[8] = system: Sprague-Dawley rats; assay: p.o. pharmacokinetic study in rats, toxicological assessment; type: in vivo; conditions: single dose of 230 and 460 mg/kg p.o.
Method: In order to evaluate the absolute bioavailability of trimebutine 4-toluenesulfonate (Example 22), an in-vivo pharmacological study was carried out in 6 Sprague-Dawley rats, which were administered a single dose of 230 and 460 mg/kg of the compound by the oral gavage route (p.o.). During this study, assessments included mortality checks and clinical observations. Blood samples were also collected for pharmacokinetic evaluations at 10 time points.

[9] = Caco-2 bidirectional permeability; type: in vitro ADME, human; conditions: human; for efflux ratio at 2 h: (Papp B − A)/(Papp A − B)
From the text: as §1, §2, §3

[10] = molecular target: kappa-opioid receptors (Cavia porcellus, UniProt P41144); conditions: cited from earlier work
[11] = system: mu-opioid receptors; conditions: cited from earlier work
[12] = 100 μM, 37° C.; simulated gastric fluid pH 1.2 up to 60 min, simulated intestinal fluid pH 6.8 and acetate buffer pH 5 up to 180 min
Method: Pyridinium 3-thiocarbamoyl-benzenesulfonate and pyridinium 4-thiocarbamoyl-benzenesulfonate (100 μM) were separately incubated at 37° C. in simulated gastric fluid (pH 1.2; without pepsin) up to 60 min, in simulated intestinal fluid (pH 6.8, without procreatin) up to 180 min, and in acetate buffer (pH 5) up to 180 min. At time points of 0, 30, 60, 120 and 180 min, an aliquot of 10 μL of samples were removed and added into vials containing […] internal standard (labetalol) in a mixture of 25:75 acetonitrile:water. Samples were analyzed by HPLC-MS/MS (ESI-, MRM) to monitor disappearance of its counter-ion over the time.

[13] = Caco-2, apical to basolateral, 2-hr, read-out: % Recovery A − B
[14] = Caco-2, apical to basolateral, 2-hr, read-out: Papp A − B
[15] = Caco-2, class from Papp A-B, read-out: Permeability
[16] = Caco-2, basolateral to apical, 2-hr
[17] = Caco-2, basolateral to apical, 2-hr, read-out: % Recovery B − A

Sequence of kappa-opioid receptors (P41144 whole entry): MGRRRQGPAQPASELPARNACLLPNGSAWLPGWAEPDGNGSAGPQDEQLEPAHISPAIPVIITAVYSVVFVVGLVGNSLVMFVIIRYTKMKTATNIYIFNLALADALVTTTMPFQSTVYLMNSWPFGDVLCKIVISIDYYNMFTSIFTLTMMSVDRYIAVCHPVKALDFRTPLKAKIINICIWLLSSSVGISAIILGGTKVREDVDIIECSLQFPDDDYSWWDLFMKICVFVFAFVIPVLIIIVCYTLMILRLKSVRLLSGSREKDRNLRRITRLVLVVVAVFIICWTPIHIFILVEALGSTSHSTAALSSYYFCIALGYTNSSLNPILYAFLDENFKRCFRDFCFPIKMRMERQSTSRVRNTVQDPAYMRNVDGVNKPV

In the case of `NC(=S)c1cccc(S(=O)(=O)O)c1`, the metabolic stability [1] is reported as “remained intact”, the metabolic stability [2] is reported as “remained intact” and the “3-cyanobenzenesulfonate found in feces, share of administered dose” value [3] is reported as “about 4%”. The “3-sulfobenzoate found, share of administered dose” value [3] was 0.3%, the “share of total counter-ion administered orally found in feces” value [3] was “About 80%” and the “share of total counter-ion administered orally found in urine” value [3] was ~20%. The metabolic stability [4] was “remained intact”, the Efflux ratio [5] was 1.2 and the “% Recovery A − B” value [5] was 63%. For the same molecule, the “Papp A − B” value [5] was 0.28 ×10⁻⁶ cm/s, the “% Recovery B − A” value [5] was 82% and the “Papp B − A” value [5] was 0.33 ×10⁻⁶ cm/s. The Permeability [5] was “Low (A permeability of (Papp A-B)<1.0×10^−6 cm/s is considered low)” and the “Significant Efflux” value [5] was “No”.
In the case of `CCC(COC(=O)c1cc(OC)c(OC)c(OC)c1)(c1ccccc1)N(C)C` (centres unmarked), the Efflux ratio [5] is reported as 1.0, the “% Recovery A − B” value [5] is reported as 51% and the “Papp A − B” value [5] is reported as 23.2 ×10⁻⁶ cm/s. For the same molecule, the “% Recovery B − A” value [5] was 62%, the “Papp B − A” value [5] was 24.3 ×10⁻⁶ cm/s and the Permeability [5] was “High (a permeability of (Papp A-B)>1.0×10^−6 cm/s is considered high)”.
`NC(=O)c1cccc(S(=O)(=O)O)c1` (as salt: potassium) gave a melting point of 223 °C.
For `NC(=S)c1ccc(C(=O)O)cc1` [4-thiocarbamoylbenzoic acid], the pKa [6] is listed as ~3.3 and the “stability of the trimebutine salt in the solid state” value [7] is listed as “unstable salt”.
For `O=S(=O)(O)c1ccccn1` [Example 7, 2-Pyridinesulfonic acid], the melting point was 131 °C.
With `O=S(=O)(O)c1cccnc1` [Example 8, 3-Pyridinesulfonic acid] the melting point was 119 °C.
In the case of `N#Cc1cccc(S(=O)(=O)O)c1` [Example 14, 3-Cyano benzenesulfonic acid], the melting point is reported as 129 °C.
For `CCC(COC(=O)c1cc(OC)c(OC)c(OC)c1)(c1ccccc1)N(C)C` (centres unmarked) [Example 22, trimebutine 4-toluenesulfonate salt], the bodyweight [8] was “no change in bodyweight”, the death [8] was “no death reported” and the toxicity [8] was “no indication of any toxicity”. For the same molecule, the recovery at 2 h [9, 13] was 58%, the Papp A→B at 2 h [9, 14] was 23.9 ×10⁻⁶ cm/s and the Papp A→B at 2 h [9, 15] was > 1 ×10⁻⁶ cm/s. For the same molecule, the efflux ratio at 2 h ([9]; Caco-2) was 0.9, the Papp B→A at 2 h [9, 16] was 21.7 ×10⁻⁶ cm/s and the recovery at 2 h [9, 17] was 76%. For the same molecule, the Permeability [5] was “high” and the “Significant Efflux” value [5] was “No”.
With `O=C([O-])c1cccc(S(=O)(=O)O)c1.[Na+]` [Sodium 3-sulfobenzoate, reference compound] the recovery at 2 h [9, 13] was 93%, the Papp A→B at 2 h [9, 14] was 0.59 ×10⁻⁶ cm/s and the Papp A→B at 2 h [9, 15] was < 1 ×10⁻⁶ cm/s. The efflux ratio at 2 h ([9]; Caco-2) was 1, the Papp B→A at 2 h [9, 16] was 0.59 ×10⁻⁶ cm/s and the recovery at 2 h [9, 17] was 115%. The “Significant Efflux” value [5] was “No”.
In the case of `CCC(COC(=O)c1cc(OC)c(OC)c(OC)c1)(c1ccccc1)N(C)C` (centres unmarked) [Trimebutine, 3,4,5-trimethoxybenzoic acid 2-(dimethylamino)-2-phenylbutylester], the metabolic stability [1] is given as “capable of metabolizing trimebutine”, the pKa [6] is given as ~6.25 and the “affinity to kappa-opioid receptors” value [10] is given as “micromolar”. The metabolic stability [2] was “capable of metabolizing trimebutine”, the “affinity to mu-opioid receptors” value [11] was “micromolar” and the metabolic stability [4] was “capable of metabolizing trimebutine”.
For `O=C(O)c1ccccc1` [benzoic acid], the “stability of the trimebutine salt in the solid state” value [7] was “unstable salt”.
For “pyridinium 3-cyanobenzenesulfonate [Pyridinium 3-cyano-benzenesulfonate]”, the Efflux ratio [5] was 2.0, the “% Recovery A − B” value [5] was 84% and the “Papp A − B” value [5] was 0.44 ×10⁻⁶ cm/s. For the same molecule, the “% Recovery B − A” value [5] was 72%, the “Papp B − A” value [5] was 0.87 ×10⁻⁶ cm/s and the Permeability [5] was “Low (A permeability of (Papp A-B)<1.0×10^−6 cm/s is considered low)”. For the same molecule, the “Significant Efflux” value [5] was “No”.
In the case of “pyridinium 4-thiocarbamoylbenzenesulfonate”, the “stability of counter-ion (disappearance over time)” value [12] is reported as “stable in all these media”, the “% Recovery A − B” value [5] is reported as 106% and the “Papp A − B” value [5] is reported as <0.54 ×10⁻⁶ cm/s. The “% Recovery B − A” value [5] was 116%, the “Papp B − A” value [5] was <0.68 ×10⁻⁶ cm/s and the Permeability [5] was “Low (A permeability of (Papp A-B)<1.0×10^−6 cm/s is considered low)”. For the same molecule, the “Significant Efflux” value [5] was “No”.
